Laboratory results taken from patent publication US20250243464A1, “ENHANCED DIFFERENTIATION OF PANCREATIC ISLET CELLS” (Vertex Pharmaceuticals Incorporated, priority 2022, published 2025).

Columns and labels:
[1] = target: EZH2 (Homo sapiens, UniProt Q15910); settings: cited from earlier work
[2] = tested on: Sox17+/Oct4− cells; assay: Flow cytometry for Sox17 and Oct4 at S1C after amino acid supplementation in S1 of Protocol 2; assay type: cell-based; settings: supplementation in S1 to final 200 μM aspartate, 300 μM glycine, 585 μM serine, Protocol 2, 0.3 L scale
Protocol: (§1) To determine whether supplementation of amino acids identified in Example 1 altered cellular differentiation outcomes, the following experiments were conducted. […] A control condition following Protocol 2 only was also performed.
The amino acid supplemented S1 base media were utilized for each S1 feed in a Protocol 2 differentiation at 0.3 L scale, alongside a control. At S1C, samples of cells were collected, stained with Sox17 and Oct4 and analyzed by flow cytometry.

[3] = tested on: PDX1+/NKX6.1− cells; assay: Flow cytometry for NKX6.1 and PDX1 at S3C after amino acid supplementation in S1; assay type: cell-based; settings: supplementation in S1 to final 200 μM aspartate, 300 μM glycine, 585 μM serine
Protocol: as §1
At S3C, samples of the cells that were supplemented with different amino acids during S1C were collected and stained with NKX6.1 and PDX1 and analyzed using flow cytometry. […] In the control, 89.3% of cells were in PDX1+/NKX6.1-, while in aspartate supplemented samples 90% of cells were PDX1+/NKX6.1-(FIG. 6B).

[4] = tested on: PDX1+/NKX6.1+ cells; assay: Flow cytometry for NKX6.1 and PDX1 at S4C after amino acid supplementation in S1; assay type: cell-based; settings: supplementation in S1 to final 200 μM aspartate, 300 μM glycine, 585 μM serine
Protocol: as §1
At S4C, samples of the cells that were supplemented with different amino acids during the S1C step were collected and stained with NKX6.1 and PDX1 and analyzed using flow cytometry.

[5] = tested on: ISL1+/NKX6.1+ (β-like) cells and ISL1+/NKX6.1− (α-like) cells; assay: Flow cytometry for NKX6.1 and ISL1 at S5C after amino acid supplementation in S1; assay type: cell-based; settings: supplementation in Stage 1; for amount of SC-β-cells / SC-β-cell composition versus control: Stage 5 (S5C)
Protocol: as §1
(§2) At S5C, samples of the cells that were supplemented with different amino acids during S1C were collected and stained with NKX6.1 and ISL1 and analyzed using flow cytometry. […] To determine how amino acid supplementation affected yield, cell viability assays were performed.
(§3) In the next set of experiments, different combinations of amino acids were tested for their effects on yield and β-cell composition. […] The control group only received treatment with Protocol 2. […] The amino acid supplemented S1 base media were utilized for each S1 feed in a Protocol 2 differentiation at 0.3 L scale, alongside a control. At S5C, samples of cells were collected, stained with NKX6.1 and ISL1 and analyzed by flow cytometry. […] To determine how amino acid supplementation affected yield, cell viability assays were performed.

[6] = tested on: viable cell density; assay: Cell viability assays / yield of Protocol 2 differentiation with amino acid supplementation in S1; assay type: cell-based
Protocol: as §2, §3

EZH2, sequence (Q15910 whole entry, species assumed): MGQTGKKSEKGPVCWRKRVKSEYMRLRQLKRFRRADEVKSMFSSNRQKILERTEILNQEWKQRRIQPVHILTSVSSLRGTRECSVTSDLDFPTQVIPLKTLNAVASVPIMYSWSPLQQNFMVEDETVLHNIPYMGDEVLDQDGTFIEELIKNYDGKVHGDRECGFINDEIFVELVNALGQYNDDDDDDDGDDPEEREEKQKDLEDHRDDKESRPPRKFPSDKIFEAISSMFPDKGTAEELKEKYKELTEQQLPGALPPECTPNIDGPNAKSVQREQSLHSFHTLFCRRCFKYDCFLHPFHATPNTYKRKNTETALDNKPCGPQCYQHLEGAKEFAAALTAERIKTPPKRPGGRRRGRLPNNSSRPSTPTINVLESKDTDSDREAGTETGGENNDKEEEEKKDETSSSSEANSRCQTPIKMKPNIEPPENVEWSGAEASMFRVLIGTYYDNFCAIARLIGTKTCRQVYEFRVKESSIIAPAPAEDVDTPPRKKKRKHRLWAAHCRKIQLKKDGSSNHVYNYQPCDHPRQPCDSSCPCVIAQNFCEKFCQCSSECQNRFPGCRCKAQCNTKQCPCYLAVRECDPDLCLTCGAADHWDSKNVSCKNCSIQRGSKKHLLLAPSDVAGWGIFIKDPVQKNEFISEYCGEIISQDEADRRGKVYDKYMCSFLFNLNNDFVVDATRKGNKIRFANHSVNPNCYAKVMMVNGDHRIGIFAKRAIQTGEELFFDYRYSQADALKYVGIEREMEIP
EZH2, sequence (O75530 whole entry partner, species assumed): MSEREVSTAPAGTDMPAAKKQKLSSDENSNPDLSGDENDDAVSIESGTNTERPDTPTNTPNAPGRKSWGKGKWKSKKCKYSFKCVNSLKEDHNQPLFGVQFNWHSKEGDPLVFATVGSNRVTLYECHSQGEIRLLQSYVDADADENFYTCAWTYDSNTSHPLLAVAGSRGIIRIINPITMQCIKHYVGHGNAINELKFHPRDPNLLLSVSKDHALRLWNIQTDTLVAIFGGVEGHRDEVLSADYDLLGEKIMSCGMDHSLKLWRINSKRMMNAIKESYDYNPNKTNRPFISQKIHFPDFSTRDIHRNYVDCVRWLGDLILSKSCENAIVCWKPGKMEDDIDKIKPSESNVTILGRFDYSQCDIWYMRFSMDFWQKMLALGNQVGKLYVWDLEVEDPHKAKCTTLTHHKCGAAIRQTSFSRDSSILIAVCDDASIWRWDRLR
EZH2, sequence (Q15022 whole entry partner, species assumed): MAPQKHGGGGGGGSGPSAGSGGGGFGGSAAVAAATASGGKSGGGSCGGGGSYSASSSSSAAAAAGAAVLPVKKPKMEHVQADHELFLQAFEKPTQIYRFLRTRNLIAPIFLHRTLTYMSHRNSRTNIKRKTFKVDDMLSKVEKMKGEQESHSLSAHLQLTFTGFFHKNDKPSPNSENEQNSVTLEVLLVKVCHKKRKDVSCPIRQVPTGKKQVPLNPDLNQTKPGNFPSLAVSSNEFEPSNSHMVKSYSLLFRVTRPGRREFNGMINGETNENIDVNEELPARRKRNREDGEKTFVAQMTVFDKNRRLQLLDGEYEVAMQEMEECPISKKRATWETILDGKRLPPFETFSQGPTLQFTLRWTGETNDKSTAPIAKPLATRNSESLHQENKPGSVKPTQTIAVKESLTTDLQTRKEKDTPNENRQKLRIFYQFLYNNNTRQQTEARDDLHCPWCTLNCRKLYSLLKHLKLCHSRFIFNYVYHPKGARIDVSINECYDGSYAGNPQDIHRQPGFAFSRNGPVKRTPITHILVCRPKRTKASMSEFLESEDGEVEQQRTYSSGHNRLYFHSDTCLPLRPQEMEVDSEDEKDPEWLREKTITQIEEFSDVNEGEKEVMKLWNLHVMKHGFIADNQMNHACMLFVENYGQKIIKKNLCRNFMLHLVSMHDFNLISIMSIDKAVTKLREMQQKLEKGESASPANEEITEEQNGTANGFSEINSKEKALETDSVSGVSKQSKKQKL

Molecule | selectivity over EZH1 ([1]; EZH2 versus EZH1) | % of Sox17+/Oct3/4− cells [2] | % of PDX1+/NKX6.1− cells [3] | % of PDX1+/NKX6.1+ cells [4] | α-like cell development ([5]; S5C) | yield (viable cells at harvest) relative to the control [6] | selectivity compared with GSK126 [1] | amount of SC-β-cells / SC-β-cell composition versus control [5]
CC[C@H](C)n1cc(C)c2c(C(=O)NCc3c(C)cc(C)[nH]c3=O)cc(-c3ccc(N4CCNCC4)nc3)cc21 [GSK126] | 150 fold | – | – | – | – | – | – | –
N[C@@H](CO)C(=O)O [Protocol 2 + Serine, serine] | – | 72.9% | 89.1% | 72.1% | promoted α-like cell development | decreased yield | – | –
CCCc1cc(C)[nH]c(=O)c1CNC(=O)c1cc(-c2ccc(N3CCN(C(C)C)CC3)nc2)cc2c1cnn2C(C)C [UNC1999] | – | – | – | – | – | – | less selective | –
aspartate [Protocol 2 + Aspartate] | – | 75.6% | 90% | 77.8% | – | – | – | increased
glycine [Protocol 2 + Glycine] | – | 81.1% | 89.1% | 77.2% | – | decreased yield | – | increased
